Measured values as given in PMC8187357 (Communications Biology, 2021).
“And” between values parts separate entries of the source, which are not always exact repeats. Equal values may be shown once.

Tests used:
[1] = biological target: T1, full-length human PD-L1 overexpressed in CHO-K1 cells (Homo sapiens, UniProt Q9NZQ7); test: Cellular NMR (T2) binding, PD-L1 overexpressing CHO-K1 cells; settings: for I/I0 / T2: trials 1-3
T1 construct: plasmid (pLVX puro-PD-L1; full-length human PD-L1); expressed in transfected cells; host or cells: CHO-K1 (lentiviral transduction)
Method: HEK293T cells were transfected with plasmid (pLVX puro-PD-L1; full-length human PD-L1) using Lenti-X packaging single shots (Takara Bio, Cat. Nos. 631275) as per the recommended kit protocol in order to generate lentiviral particles. The supernatant collected after 48 h containing the lentiviral particles was used for lentiviral transduction of CHO-K1 cells. The expression of PD-L1 on the CHO-K1 cells was determined by flow cytometry. Limiting dilution cloning was performed to isolate single clones of CHO-K1 cells expressing high levels of PD-L1.
PD-L1 transfected CHO-K1 cells were cultured in Ham’s F12 K medium (Cat#21127-022, Gibco) containing penicillin & streptomycin antibiotic solution and 10% FBS (cat#SH30071-03, HyClone) along with 4 µg/mL of puromycin (Cat#A11138-03, Gibco), and were grown at 37 °C, 5% CO2 in a humidified atmosphere in tissue culture treated flask. 80–90% confluent cells were detached with PBS containing 2 mM EDTA, counted and washed twice with phosphate-buffered saline, pH 7.4 and re-suspended in PBS(cat#14190-144 Gibco) at a density of 8 million cells per mL. The cell suspension in PBS was transferred in a 5 mm Norell NMR tube containing 5% D2O and NMR experiments were performed under ligand titration. Cells remained viable under these experimental conditions as assessed by Trypan Blue staining method.
NMR experiments were carried out using Bruker 800 MHz NMR spectrometer fitted with 5 mm TCI cryoprobe. The experiment was performed over 4 × 10^6 cells in 95% 1 X PBS, pH 7.4, after adding 5% (v/v) D2O at constant temperature 298 K employing the pulse sequence shown in Supplementary Fig. 1a. The FID obtained was processed employing TOPSPIN software version 3.5. The interaction studies of CA-170 and overexpressed cells were carried out using a two-point HSQC method by recording the first FID. Briefly, during the transfer of polarization from ^1H to ^13C in the forward INEPT part of the 2D [^13C, ^1H] HSQC experiment, an additional delay of 16 ms is introduced on the proton channel during which the signal decays due to transverse relaxation. A second experiment is recorded with this delay set to […], the experimental parameters used to record these two spectra are given in Supplementary Table 7. A representative NMR spectrum of superimposed first FID of modified 2D [^13C, ^1H] HSQC of CA-170 treatment with PD-L1 overexpressed CHO-K1 cells is shown in Supplementary Fig. 1b.
The signal at any point of time is related to the initial intensity as follows. I=Ioexp(−Δt/T2) Where Δt is the difference between initial and final time points and I and Io are the final and initial intensity respectively. The transverse relaxation time (T2) of the ligand protons is calculated from the signal intensity ratio obtained from the above experiments by using the following equation which can be obtained from the above relation (Supplementary Table 8). T2=Relaxationdelay(τ)/−log(I/I0) where I = Area of the peak with delay (16 ms delay); I0 = Area of the peak without delay (16 μs delay).

[2] = tested on: TNFα; test: CEREP 80 panel binding: Cytokines; settings: 10 µM
Method: (§1) CEREP 80 panel assay was carried out by Eurofins Cerep Panlabs facility at France. A series of binding assays was carried out to understand the off-target toxicity of CA-170. CA-170 was tested at 10 μM test concentration in duplicates. Compound binding was calculated as a % inhibition of the binding of a radioactively labeled ligand specific for each target. In each experiment the respective reference compound was tested concurrently with CA-170, and the data were compared with historical values determined at Eurofins. The experiment was accepted in accordance with Eurofins validation standard operating procedure. The results are expressed as a percent of control specific binding; (measured specific binding / control specific binding) × 100 and as a percent inhibition of control specific binding; 100−(measured specific binding / control specific binding) × 100 obtained in the presence of CA-170. The IC50 values (concentration causing a half-maximal inhibition of control specific binding) and Hill coefficients (nH) were determined by non-linear regression analysis of the competition curves generated with mean replicate values using Hill equation curve fitting.

[3] = tested on: BZD (peripheral), BZD (central); test: CEREP 80 panel binding: Benzodiazepine; settings: 10 µM
Method: as §1

[4] = biological target: PD-L1 (Homo sapiens, UniProt Q9NZQ7); test: Rescue of IFN-γ release inhibited by PD-L1, human PBMC; type: cell-based; set-up: purchased R&D systems 156-B7-100; settings: for IFNγ Rescue (%): inhibited by PD-L1; for IFNγ Rescue (%) / IFN-γ: replicates; for IFN-γ: human PBMCs + anti-CD3/anti-CD28 + PD-L1 10 nM
Method: The ability of peptides, peptidomimetics, and small molecules were analyzed for their ability to rescue T-cell proliferation or IFN-γ release from the inhibitory activity of PD-L1 or PD-L2 in a splenocyte/PBMC-based functional assay as per the protocols reported in publication. […] For all in vitro assays, test agent stock was prepared in water and diluted further in the assay media to achieve test concentrations. Each experimental condition was carried out in triplicates. Percent rescue for a given test compound concentration was calculated by normalizing individual percent test agent proliferation or IFN-γ release values to percent anti-CD3 and anti-CD28 antibodies stimulated proliferation or IFN-γ release. EC50 values were derived by plotting transformed data into non-linear fit in sigmoidal dose–response curve using GraphPad Prism software (Version 7).

[5] = CA-170 5.0 µM, PD-L1 overexpressed CHO-K1
[6] = CA-170 7.5 μM, PD-L1 Overexpressed CHO-K1
[7] = CA-170 10.0 μM, PD-L1 Overexpressed CHO-K1
[8] = CA-170 15.0 μM, PD-L1 Overexpressed CHO-K1
[9] = CA-170 20.0 μM, PD-L1 Overexpressed CHO-K1
[10] = CA-170 40.0 μM, PD-L1 Overexpressed CHO-K1

Sequence of PD-L1 (Q9NZQ7 with tags, fused parts or gaps limits assumed): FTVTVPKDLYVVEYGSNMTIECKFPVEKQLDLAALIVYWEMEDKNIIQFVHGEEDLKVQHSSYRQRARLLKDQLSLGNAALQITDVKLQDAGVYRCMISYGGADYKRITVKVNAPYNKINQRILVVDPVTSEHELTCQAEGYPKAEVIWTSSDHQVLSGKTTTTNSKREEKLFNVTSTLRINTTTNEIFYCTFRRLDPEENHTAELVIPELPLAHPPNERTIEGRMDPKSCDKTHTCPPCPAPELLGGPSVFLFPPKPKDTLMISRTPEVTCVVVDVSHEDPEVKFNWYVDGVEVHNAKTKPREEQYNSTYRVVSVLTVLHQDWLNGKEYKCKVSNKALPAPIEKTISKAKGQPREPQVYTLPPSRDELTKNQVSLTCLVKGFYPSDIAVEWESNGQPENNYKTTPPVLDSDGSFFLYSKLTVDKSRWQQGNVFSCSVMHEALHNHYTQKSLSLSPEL
T1 sequence (Q9NZQ7 19-290): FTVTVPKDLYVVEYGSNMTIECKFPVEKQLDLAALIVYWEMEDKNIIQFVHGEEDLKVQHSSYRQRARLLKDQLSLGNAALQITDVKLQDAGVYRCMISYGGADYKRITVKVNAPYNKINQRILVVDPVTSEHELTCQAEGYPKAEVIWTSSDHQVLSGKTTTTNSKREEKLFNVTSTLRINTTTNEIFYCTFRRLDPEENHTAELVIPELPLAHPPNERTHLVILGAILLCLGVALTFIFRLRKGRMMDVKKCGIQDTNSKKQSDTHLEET

## C[C@@H](O)[C@H](NC(=O)N[C@@H](CC(N)=O)c1nc([C@@H](N)CO)no1)C(=O)O [CA-170]
[1]; [5]
  I/I0: 0.34 and 0.35
  T2: 29.67 mS and 35.08 mS and 33.97 mS
[1]; [6]
  I/I0: 0.43 and 0.4 and 0.49
  T2: 43.70 mS and 51.60 mS and 41.00 mS
[1]; [7]
  I/I0: 0.45 and 0.47 and 0.39
  T2: 46.10 mS and 48.48 mS and 38.70 mS
[1]; [8]
  I/I0: 0.55 and 0.48 and 0.49
  T2: 61.50 mS and 50.00 mS and 52.00 mS
[1]; [9]
  I/I0: 0.57 and 0.53 and 0.51
  T2: 66.12 mS and 58.18 mS and 55.36 mS
[1]; [10]
  I/I0: 0.58 and 0.55 and 0.57
  T2: 67.51 mS and 61.50 mS and 66.67 mS
[1]; cell-based NMR
  binding to PD-L1 overexpressed in the cellular context (in words): specific interaction of CA-170 to PD-L1
[2]
  % Inhibition of Control Specific Binding: < 0%
[3]
  % Inhibition of Control Specific Binding: ≤ 5%
[4]; 1.95 nM
  IFNγ Rescue (%): -2.66% and -2.30% and -1.54%
[4]; 3.91 nM
  IFNγ Rescue (%): -2.42% and -2.56% and -1.54%
[4]; 15.63 nM
  IFNγ Rescue (%): 20.10% and 20.46% and 27.08%
[4]; 31.25 nM
  IFN-γ: 256.5 pg/mL and 264 pg/mL and 296.5 pg/mL
  IFNγ Rescue (%): 21.31% and 22.51% and 31.08%
[4]; 62.50 nM
  IFNγ Rescue (%): 42.13% and 43.48% and 57.23%
[4]; 250.00 nM
  IFNγ Rescue (%): 76.76% and 83.89% and 104.62%
[4]; 500 nM
  IFN-γ: 876.5 pg/mL and 939 pg/mL and 906.5 pg/mL
[4]; 500.00 nM
  IFNγ Rescue (%): 81.36% and 91.56% and 106.15%
[4]; human PBMCs stimulated with anti-CD3 and anti-CD28
  rescue of IFNγ release inhibited by recombinant PD-L1 (in words): rescued IFNγ release
[4]; mean ± S.D., n=3
  EC50: 66.1 nM
